Data reported in patent US5006515A, “Pharmaceuticals, phosphorus-containing 2-isoxazolines and isoxazoles contained therein” (Hoechst Aktiengesellschaft, priority 1987, dated 1991).
pIC50: −log10 of the molar value. Like-named read-outs stand apart in the source and are kept apart here.

How the values were obtained:
peritoneal macrophages [1] = assay: Stimulation of the release of lysosomal enzymes from peritoneal macrophages (exocytosis); conditions: single i.p. dose of 40 mg/kg; maximum activation by Example 34 = 100%; 40 mg/kg
peritoneal macrophages [2] = assay: Activation of peritoneal macrophages: chemiluminescence (oxidative metabolism); conditions: single i.p. dose of 40 mg/kg; maximum activation by Example 34 = 100%; 40 mg/kg
leucine aminopeptidase = assay: Inhibition of leucine aminopeptidase; format: biochemical; conditions: substrate L-leucine 4-nitroanilide
Procedure: (§1) The activity of the enzyme aminopeptidase B was determined photometrically using the substrate L-lysine 2-naphthylamide at room temperature. […] In the same way, the inhibition of leucine aminopeptidase was investigated using L-leucine 4-nitroanilide as enzyme substrate. The IC50 values are compiled in Table 6.

active Arthus reaction = assay: Active Arthus reaction in the rat; format: in vivo, Sprague-Dawley rats; conditions: for Active Arthus reaction % change / change in vivo at 50 mg/kg: oral dose 50 mg/kg
Procedure: The experimental animals used were female and male Sprague-Dawley rats with a body weight between 80 and 100 g which received subcutaneous injections into the tail-head of 0.5 ml of an emulsion of pertussis vaccine and ovalbumin in liquid paraffin. After two weeks, the rats were divided into groups each of 8 animals. 24 hours and 1 hour before induction of the Arthus reaction by injection of 0.1 ml of a 0.4% strength ovalbumin solution into the right hind paw, the particular test substance or the pure vehicle (positive control) was administered orally, sodium chloride solution was injected into the left paw. One group of unsensitized animals (negative control group) was likewise treated with ovalbumin in order to be able to rule out nonspecific reactions to the protein. The parameter used for measuring the action of the product was the percentage change in the increase in paw volume compared with that in the control group which was sensitized but untreated (positive control) 4 hours after ovalbumin challenge, when the swelling had reached its maximum.

[3] = test system: DTH reaction to sheep erythrocytes; assay: Delayed-type hypersensitivity (DTH) reaction to sheep erythrocytes; format: in vivo, female NMRI mice; conditions: single i.p. dose of 40 mg/kg, maximal stimulation by Example 34 = 100%
Procedure: Groups each comprising 5 female NMRI mice with a body weight of 18 to 20 g were formed, and each animal was given 10^6 or 10^9 sheep red blood cells intravenously. Sheep erythrocytes are regarded in immunology as a standard antigen with which it is possible to check cellular and humoral immunoreactivity, especially the functioning of the T-cell-dependent component of the immune system, the so-called T-helper cells. The test substances were administered, in intraperitoneal doses of 5 to 100 mg/kg in physiological saline, at the same time as the antigen. After 5 days, each animal was given an injection of 2×10^8 sheep erythrocytes into the footpad. 24 hours later, the swelling of the foot was measured. The foot swelling is induced by a skin reaction of the delayed type (DTH reaction) and, as is known to those skilled in the art, is a measure of the cellular immune response (J. Immunol. 101 (1968), 830-845). The test results obtained with the product of Example 34, by way of example, are compiled in Table 7 and illustrate that the compounds of the formula I--administered prophylactically--are able to increase the cellular immune response after immunization with the antigen by stimulation of the T-cell system, with the stimulant action reaching its optimum in this experiment at a dose of 25 mg/kg.

Acute toxicity = assay: Acute toxicity; design: species or system mice; conditions: mouse, in vivo, single dose, mortality within 7 days
Procedure: The LD50 values were determined by the standard method via the mortality occurring within 7 days in NMRI (Naval Medical Research Institute) mice (6 animals per dose) after a single intraperitoneal (i.p.) or intravenous (i.v.) dose.

aminopeptidase B = aminopeptidase B (Homo sapiens, UniProt Q9H4A4); assay: Inhibition of aminopeptidase B; format: biochemical
Sequence of aminopeptidase B (Q9H4A4 whole entry, species assumed): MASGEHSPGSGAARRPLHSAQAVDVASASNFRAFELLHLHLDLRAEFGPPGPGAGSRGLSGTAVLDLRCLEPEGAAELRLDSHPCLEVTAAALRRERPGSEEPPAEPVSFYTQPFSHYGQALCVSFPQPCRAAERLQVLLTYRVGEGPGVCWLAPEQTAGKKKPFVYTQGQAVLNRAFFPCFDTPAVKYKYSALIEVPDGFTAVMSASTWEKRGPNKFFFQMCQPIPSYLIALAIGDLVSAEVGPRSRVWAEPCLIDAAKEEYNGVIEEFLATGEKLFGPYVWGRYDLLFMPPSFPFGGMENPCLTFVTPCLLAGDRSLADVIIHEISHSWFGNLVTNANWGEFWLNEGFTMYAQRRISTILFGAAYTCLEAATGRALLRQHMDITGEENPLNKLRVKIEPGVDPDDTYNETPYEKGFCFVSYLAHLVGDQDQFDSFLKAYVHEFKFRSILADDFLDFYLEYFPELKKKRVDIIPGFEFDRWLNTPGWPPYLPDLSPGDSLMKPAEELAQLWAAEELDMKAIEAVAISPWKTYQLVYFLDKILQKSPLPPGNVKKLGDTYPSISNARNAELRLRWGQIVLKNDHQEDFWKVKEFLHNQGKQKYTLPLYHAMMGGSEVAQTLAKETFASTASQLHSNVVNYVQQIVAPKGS
Procedure: as §1

cGvH reaction = assay: Chronic graft-versus-host (cGvH) reaction in the mouse; format: in vivo, female mice of (DBA/2×C57Bl/6)F1 generation; conditions: 6 weeks
Text: Graft-versus-host disease, which derives from an immune reaction originating from the transplant and directed against the host tissue, is characterized, in the acute form which almost always has a fatal outcome, by enlargement of the spleen, swelling of the liver, hypertrophy of the lymph nodes, hemolytic anemia, lowered immunoglobulin and complement levels and diminished immunoreactivity. The chronic form of the disease, which has a somewhat milder course, leads to lymphadenopathy, immune complex glomerulonephritis and excessive formation of non-organ-specific autoantibodies. A syndrome with similar features is systemic lupus erythematosus (SLE) which is likewise one of the autoimmune diseases.
The investigation of the compounds used according to the invention for the progress of the cGvH reaction induced in female mice of (DBA/2×C57Bl/6)F1 generation by two injections of spleen and thymus cells mixed together are carried out in the experimental system described by S. Popovic and R. R. Bartlett (Agents and Actions 21 (1987), 284-286), with 5×10^7 DBA/2 cells, likewise obtained from female donor animals, being administered intravenously in 0.2 ml of culture medium each time at a time interval of 7 days. For a reliable assessment of the outbreak and course of the disease, a group of healthy animals was included as negative control in all experiments. The 6-week oral treatment of the animals with the disease started on day 21 after the first donor cell injection, with the test substances or the pure vehicle (positive control) being administered once a day. The vehicle used was an aqueous CMC (carboxymethylcellulose sodium salt) solution containing 100 mg of CMC per 1. The volume administered was 10 ml per kg body weight. The individual experimental groups each comprised 10 animals.
The action of the products was assessed on the basis of the inhibition of proteinuria and the cGvH index. As a consequence of the destruction of nephrons by deposition of immune complexes on the basement membranes of the glomeruli, the animals with the disease developed pronounced proteinuria, which correlates with the extent of glomerulonephritis and can easily be quantified via the increase in the amount of protein excreted with the urine. The second parameter measured, the cGvH index, relates to the great enlargement of the spleen (splenomegaly) caused by the cGvH reaction. It is defined as the quotient of the product of the spleen and body weights of the animals with the disease and of the product of the corresponding weights of healthy untreated animals on the negative control group, and is a reliable measure of the intensity of the disease (the greater this index, the more severe the disease).

[4] = Rattus norvegicus, po, 4 h, 4 h after ovalbumin challenge
[5] = Rattus norvegicus, po, 4 h, read-out: Active Arthus reaction % change

SMILES: COP(=O)(OC)C1CC(c2ccccc2)=NO1 (single isomer, unassigned) [Example 60a, Dimethyl (+)- and (-)-3-phenyl-2-isoxazolin-5-ylphosphonate]
- Relative stimulation of macrophage activity: Exocytosis (peritoneal macrophages [1]): 88%
- Relative stimulation of macrophage activity: Chemiluminescence (peritoneal macrophages [2]): 51%

SMILES: COP(=O)(OC)C1CC(c2ccccc2)=NO1 (single isomer, unassigned) [Example 60b, Dimethyl (+)- and (-)-3-phenyl-2-isoxazolin-5-ylphosphonate]
- Relative stimulation of macrophage activity: Exocytosis (peritoneal macrophages [1]): 63%
- Relative stimulation of macrophage activity: Chemiluminescence (peritoneal macrophages [2]): 24%

SMILES: O=P(O)(O)C1CC(c2ccccc2)=NO1 (single isomer, unassigned; (+)) [Example 61, (+)-3-Phenyl-2-isoxazolin-5-ylphosphonic acid]
- Leucine aminopeptidase IC50 (leucine aminopeptidase): 26 μug/ml
- Active Arthus reaction % change (active Arthus reaction; 4 h after ovalbumin challenge): +52%
- Relative stimulation of the DTH reaction ([3]; 40 mg/kg): 108%

SMILES: O=P(O)(O)C1CC(c2ccccc2)=NO1 (single isomer, unassigned; (-)) [Example 62, (-)-3-Phenyl-2-isoxazolin-5-ylphosphonic acid]
- Leucine aminopeptidase IC50 (leucine aminopeptidase): 130 μug/ml
- Active Arthus reaction % change (active Arthus reaction; 4 h after ovalbumin challenge): +16%
- Relative stimulation of the DTH reaction ([3]; 40 mg/kg): 83%

SMILES: COP(C)(=O)C1CC(c2ccccc2)=NO1 (centres unmarked) [Example 13, Methyl 3-phenyl-2-isoxazolin-5-yl(P-methyl)phosphinate]
- LD50 at 168 h (Acute toxicity; iv): > 200 mg/kg
- pIC50 (aminopeptidase B): 3.38
- change in vivo at 50 mg/kg (active Arthus reaction; Rattus norvegicus, 4 h after ovalbumin challenge): -13%

SMILES: O=P(O)(O)C1CC(c2ccccc2)=NO1 (centres unmarked) [Example 35]
- LD50 at 168 h (Acute toxicity; iv): > 200 mg/kg
- Leucine aminopeptidase IC50 (leucine aminopeptidase): 57 μug/ml
- change in vivo at 35 mg/kg (active Arthus reaction; Rattus norvegicus, po, 4 h, oral dose 35 mg/kg, 4 h after ovalbumin challenge, read-out: Active Arthus reaction % change): -16%
- Relative stimulation of the DTH reaction ([3]; 40 mg/kg): 98%

SMILES: O=P(O)(O)C1CC(c2ccccc2)=NO1 (centres unmarked) [Example 36]
- Leucine aminopeptidase IC50 (leucine aminopeptidase): 56 μug/ml
- Relative stimulation of the DTH reaction ([3]; 40 mg/kg): 102%

SMILES: O=P(O)(O)C1CC(c2ccccc2)=NO1 (centres unmarked) [Example 37]
- Leucine aminopeptidase IC50 (leucine aminopeptidase): 52 μug/ml
- Relative stimulation of the DTH reaction ([3]; 40 mg/kg): 77%

SMILES: COc1ccc(C2=NOC(P(=O)(O)O)C2)cc1 (centres unmarked) [Example 48]
- LD50 at 168 h (Acute toxicity; ip): 300 to 600 mg/kg
- Leucine aminopeptidase IC50 (leucine aminopeptidase): 100 μug/ml
- change in vivo at 100 mg/kg (active Arthus reaction; Rattus norvegicus, po, 4 h, oral dose 100 mg/kg, 4 h after ovalbumin challenge, read-out: Active Arthus reaction % change): 10%

SMILES: O=C(C1=NOC(P(=O)(O)O)C1)c1ccccc1 (centres unmarked) [Example 53]
- Leucine aminopeptidase IC50 (leucine aminopeptidase): 65 μug/ml
- Relative stimulation of the DTH reaction [3]: 68%

SMILES: COc1ccc(-c2cc(P(=O)(O)O)on2)cc1 [Example 54]
- LD50 at 168 h (Acute toxicity; iv): > 200 mg/kg
- % inhibition Proteinuria (cGvH reaction; oral dose 15 mg/kg/day): 27%
- % inhibition cGvH index (cGvH reaction; oral dose 15 mg/kg/day): 16%
- % inhibition Proteinuria (cGvH reaction; oral dose 50 mg/kg/day): 64%
- % inhibition cGvH index (cGvH reaction; oral dose 50 mg/kg/day): 18%
- change in vivo at 40 mg/kg (active Arthus reaction; Rattus norvegicus, po, 4 h, oral dose 40 mg/kg, 4 h after ovalbumin challenge): -57%

SMILES: CP(=O)(O)C1CC(c2ccccc2)=NO1 (centres unmarked) [Example 63, 3-Phenyl-2-isoxazolin-5-yl(P-methyl)phosphinic acid]
- LD50 at 168 h (Acute toxicity; ip): 300 to 600 mg/kg
- % inhibition Proteinuria (cGvH reaction; oral dose 15 mg/kg/day): 76%
- % inhibition cGvH index (cGvH reaction; oral dose 15 mg/kg/day): 54%
- % inhibition Proteinuria (cGvH reaction; oral dose 30 mg/kg/day): 61%
- % inhibition cGvH index (cGvH reaction; oral dose 30 mg/kg/day): 48%
- change in vivo at 50 mg/kg (active Arthus reaction; [4]): -48%

SMILES: O=[N+]([O-])c1ccc(C2=NOC(P(=O)(O)O)C2)cc1 (centres unmarked) [Example 69, 3-(4-Nitrophenyl)-2-isoxazolin-5-ylphosphonic acid]
- LD50 at 168 h (Acute toxicity; iv): > 100 mg/kg
- Leucine aminopeptidase IC50 (leucine aminopeptidase): 27 μug/ml
- change in vivo at 50 mg/kg (active Arthus reaction; [4]): -20%

SMILES: Br.CN(C)c1ccc(C2=NOC(P(=O)(O)O)C2)cc1 (centres unmarked) [Example 71, 3-(4-Dimethylaminophenyl)-2-isoxazolin-5-ylphosphonic acid hydrobromide]
- LD50 at 168 h (Acute toxicity; ip): 150 to 300 mg/kg
- Leucine aminopeptidase IC50 (leucine aminopeptidase): 37 μug/ml
- change in vivo at 70 mg/kg (active Arthus reaction; [5]): -10%

SMILES: O=P(O)(O)C1CC(c2cccs2)=NO1 (centres unmarked) [Example 75, 3-(2-Thienyl)-2-isoxazolin-5-ylphosphonic acid]
- LD50 at 168 h (Acute toxicity; iv): > 100 mg/kg
- Leucine aminopeptidase IC50 (leucine aminopeptidase): 79 μug/ml
- change in vivo at 35 mg/kg (active Arthus reaction; [5]): -26%
